From patent publication US20090054451A1, “Use of Piperidine Derivatives as Agonists of Chemokine Receptor Activity” (Euroscreen S.A., priority 2007, published 2009)
Read-outs that look alike come from different tables or passages of the source.

Key:
[1] = tested on: recombinant and non-replicative HIV virus; assay: Inhibitory effect on HIV infection to MAGI-CCR5 cells (luciferase reporter virus); assay type: cell-based
Description: The inhibitory activity of the compounds of the invention on HIV infection is measured on the human MAGI R5 recombinant cell line coexpressing the human CCR5 receptor and CD4 at their extracellular membrane. MAGI R5 cells are plated in black view plates at 10,000 cells/well and incubated with the appropriate concentrations of the compounds of the invention during 1 hour. This is followed by a 24 hours infection period with the recombinant and non-replicative HIV virus coding for the firefly luciferase (Bona et al., 2006, Antimicrob. Agents Chemother. 50: 3407-3417). The inhibitory effect of the tested compound on virus entry in MAGI R5 cells is measured by a reduction of luciferase signal (TopCount-NXT reader (Packard) and detection luciferase kit: steadylite HTS assay kit (Perkin Elmer)) in the presence of the compound of the invention relative to the maximum signal obtained from cells infected with the virus without any added compound. The results of the tested compounds are reported as the concentration of compound required to inhibit 50% (IC50) of the maximum luciferase signal.

CCR5 receptor [2] = target: T1, CCR5 receptor (Homo sapiens, UniProt P51681); assay: 125I-MIP-1β binding competition assay; parameters: expressed in transfected cells; host or cells: membranes of recombinant Chinese hamster ovary (CHO) cells; conditions: membranes of CHO cells expressing human CCR5; 0.05 nM 125I-MIP-1β
Description: The ability of the compounds of the invention to inhibit the binding of MIP-1β was assessed by an in vitro radioligand binding assay. Membranes were prepared from Chinese hamster ovary recombinant cells which express the human CCR5 receptor. The membranes were incubated with 0.05 nM ^125I-MIP-1β in a HEPES 25 mM/CaCl2 5 mM/MgCl2 1 mM buffer and various concentrations of the compounds of the invention. The amount of iodinated MIP-1β bound to the receptor was determined after filtration by the quantification of membrane associated radioactivity using the TopCount-NXT reader (Packard). Competition curves were obtained for compounds of the invention and the concentration of compound which displaced 50% of bound radioligand (IC50) was calculated

CCR5 receptor [3] = target: T1, CCR5 receptor; assay: Aequorin-based calcium flux assay, agonist mode; assay type: cell-based; parameters: expressed in transfected cells; host or cells: Chinese hamster ovary (CHO) cells coexpressing apoaequorin and Gα16
Description: (§1) Briefly, Chinese hamster ovary cells expressing the CCR5 receptor are transfected to coexpress apoaequorin and Gα16. Cells are incubated with 5 μM Coelenterazine H (Promega) overnight at room temperature, and resuspended at a concentration of 0.1×10^6 cells/ml. Cells are then mixed with test agonist or antagonist compounds and light emission by the aequorin is recorded with a luminometer (FDSS 6000-Hamamatsu) for 30 sec. Results are expressed as Relative Light Units (RLU). Controls include cells not expressing CCR5 in order to exclude possible non-specific effects of the test compound.
An agonist response is defined as an increase of light emission by aequorin corresponding to 10% or more of the light emitted by a reference sample of cells expressing CCR5 and treated with a the reference agonist ligand MIP-1β.

CCR5 receptor [4] = target: T1, CCR5 receptor; assay: Aequorin-based calcium flux assay, antagonist mode (against reference agonist MIP-1β); assay type: cell-based; parameters: expressed in transfected cells; host or cells: Chinese hamster ovary (CHO) cells coexpressing apoaequorin and Gα16; conditions: CHO cells expressing CCR5, vs reference agonist MIP-1β; for IC50: read-out: Aequorin/Ca++ Antagonist assay IC50; on all read-outs here: key: Inactive means >30000 nm
Description: as §1
An antagonist response is defined as a decrease of light emission by aequorin of 10% or more in a sample of cells expressing CCR5 stimulated by a reference agonist ligand MIP-1β and treated with the compound of the invention, relative to a sample of cells expressing CCR5 but only treated with the reference agonist ligand MIP-1β.

[5] = Human immunodeficiency virus 1, MAGI, read-out: IC50 (HIV infection of MAGI R5 cells), range over the listed compounds
[6] = Human immunodeficiency virus 1, MAGI-CCR5, 24 h, read-out: HIV-Infection assay IC50
[7] = CHO cells expressing CCR5, apoaequorin and Gα16, read-out: Aequorin/Ca++ assay EC50
[8] = CHO cells expressing CCR5, agonistic mode of action, read-out: Aequorin/Ca++ Agonist assay EC50
[9] = CHO cells expressing CCR5, agonistic mode of action

T1 sequence (P51681 whole entry): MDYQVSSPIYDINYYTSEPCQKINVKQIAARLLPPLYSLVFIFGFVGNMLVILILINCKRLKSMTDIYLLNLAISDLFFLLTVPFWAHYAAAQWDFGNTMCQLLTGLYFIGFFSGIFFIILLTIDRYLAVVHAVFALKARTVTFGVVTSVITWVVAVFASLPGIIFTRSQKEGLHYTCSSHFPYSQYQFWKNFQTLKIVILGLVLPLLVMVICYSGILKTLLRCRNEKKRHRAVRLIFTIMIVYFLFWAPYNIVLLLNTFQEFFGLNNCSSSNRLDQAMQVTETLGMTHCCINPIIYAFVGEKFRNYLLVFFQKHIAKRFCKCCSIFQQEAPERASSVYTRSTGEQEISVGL

Row | SMILES | IC50 [1, 5] [nM] | IC50 [1, 6] [nM] | IC50 (CCR5 receptor [2]) [nM] | EC50 (CCR5 receptor [3]; [7]) [nM] | Aequorin/Ca++ Antagonist assay IC50 (CCR5 receptor [4]) | EC50 (CCR5 receptor [3]; [8]) [nM] | Aequorin/Ca++ Agonist assay EC50 (CCR5 receptor [3]; [9]) | IC50 (CCR5 receptor [4]) [nM]
1 | O=C(Cc1ccc(Cl)cc1)NC1CCN(CCC(c2ccccc2)c2ccccc2)CC1 [Compound 1] | 25.6 to 2500 | 333 | 9.32 | 58.8 | Inactive |  |  | 
2 | CS(=O)(=O)c1ccc(CC(=O)NC2CCN(CCC(c3ccccc3)c3ccccc3)CC2)cc1 [Compound 2] | 25.6 to 2500 | 345 | 6.61 | 33.2 |  |  |  | 
3 | COc1ccc(CC(=O)NC2CCN(CCC(c3ccccc3)c3ccccc3)CC2)cc1 [Compound 3] | 25.6 to 2500 | 871 | 14.8 | 27.9 |  |  |  | 
4 | O=C(Cc1ccc(OC(F)(F)F)cc1)NC1CCN(CCC(c2ccccc2)c2ccccc2)CC1 [Compound 5] | 25.6 to 2500 | 425 | 23.4 | 145 |  |  |  | 
5 | O=C(Cc1ccccc1)NC1CCN(CCC(c2ccccc2)c2ccccc2)CC1 [Compound 7] | 25.6 to 2500 | 1420 | 26.7 | 43.2 |  |  |  | 
6 | N#Cc1ccc(CC(=O)NC2CCN(CCC(c3ccccc3)c3ccccc3)CC2)cc1 [Compound 24] | 25.6 to 2500 | 384 | 3.25 | 104 |  |  |  | 
7 | O=C(Cc1c[nH]c2ccccc12)NC1CCN(CCC(c2ccccc2)c2ccccc2)CC1 [Compound 25] | 25.6 to 2500 | 1130 | 67.5 | 90.8 |  |  |  | 
8 | O=C(CC1CCCCC1)NC1CCN(CCC(c2ccccc2)c2ccccc2)CC1 [Compound 28] |  | 2540 | 158 | 620 |  |  |  | 
9 | O=C(CN1Cc2ccccc2C1=O)NC1CCN(CCC(c2ccccc2)c2ccccc2)CC1 [Compound 31] |  |  |  |  | Inactive | 470 |  | 
10 | O=C(NC1CCN(CCC(c2ccccc2)c2ccccc2)CC1)C(c1ccccc1)N1Cc2ccccc2C1=O (centres unmarked) [Compound 37] |  |  |  |  | Inactive | 4250 |  | 
11 | CN(C(=O)C(c1ccccc1)N1Cc2ccccc2C1=O)C1CCN(CCC(c2ccccc2)c2ccccc2)CC1 (centres unmarked) [Compound 62] |  |  |  |  |  |  | Inactive | 1230
12 | CN(C(=O)CN1Cc2ccccc2C1=O)C1CCN(CCC(c2ccccc2)c2ccccc2)CC1 [Compound 63] |  |  |  |  |  |  | Inactive | 1430
13 | CC(CC(c1ccccc1)c1ccccc1)N1CCC(NC(=O)Cc2ccc(S(C)(=O)=O)cc2)CC1 (centres unmarked) [Compound 64] | 25.6 to 2500 | 25.6 | 0.14 | 83.4 |  |  |  | 
14 | CC(CC(c1ccccc1)c1ccccc1)N1CCC(NC(=O)Cc2ccc(C#N)cc2)CC1 (centres unmarked) [Compound 65] | 25.6 to 2500 | 71.7 | 0.64 | 117 |  |  |  | 
15 | C[C@H](CN(c1cccc(F)c1)S(=O)(=O)Cc1ccccc1)N1CCC(NC(=O)Cc2ccccc2F)CC1 [Compound 80] |  | 27 | 0.8 | 31.3 |  |  |  | 
16 | C[C@H](CN(c1cccc(F)c1)S(=O)(=O)Cc1ccccc1)N1CCC(NC(=O)Cc2ccc(F)cc2F)CC1 [Compound 81] |  | 14.6 | 0.2 | 38.1 |  |  |  | 
17 | C[C@H](CN(c1cccc(F)c1)S(=O)(=O)Cc1ccccc1)N1CCC(NC(=O)Cc2ccc(C(F)(F)F)cc2)CC1 [Compound 90] |  | 5.3 | 0.7 | 180 |  |  |  | 
18 | C[C@H](CN(c1ccccc1)S(=O)(=O)Cc1ccccc1)N1CCC(NC(=O)Cc2ccc(C#N)cc2)CC1 [Compound 93] |  | 1.9 | 0.5 | 50.8 |  |  |  | 
19 | C[C@H](CN(c1cccc(F)c1)S(=O)(=O)Cc1ccccc1)N1CCC(NC(=O)Cc2ccc(F)cc2)CC1 [Compound 97] |  | 3 | 0.2 | 94.4 |  |  |  | 
20 | C[C@H](CN(c1ccccc1)S(=O)(=O)Cc1ccccc1)N1CCC(NC(=O)Cc2ccc(F)cc2F)CC1 [Compound 113] |  | 4.6 |  | 29.4 |  |  |  | 
